From EP0308065A2, “Therapeutic nucleosides” (priority 1987, dated 1989)
Counter-ions that a name gives are not always drawn.

Columns and labels:
[1] = growth inhibition of uninfected mammalian cells (L cells); type: cell-based; settings: mouse, three days exposure, L cells (murine), read-out: Cell Toxicity (% of control at 100µm) L-Cells
Method: (§1) The capability of candidate compounds to inhibit the growth of D98 cells (human) and L cells (murine) was measured by determination of cell number following three days exposure of a standard number of cells to various dilutions of compound (Rideout, J. L., Krenitsky, T.A., Koszalka, G.W., Cohn, N.K., Chao, E.Y. Elion, G.B., Latter, V.S., and Williams, R.B. (1982) J. Med Chem. 25: 1040-1044). The cell number was then compared to the number obtained in the absence of compound. Cell enumeration was performed by either direct particle counts following trypsinization of the monolayer, or by spectrophotometric determination of the amount of vital stain taken up by the cells.
(§2) The concentration of compound resulting in 50% of control values (IC50) was calculated either by direct interpolation from graphs of the log of the compound concentration versus the percent of control value, or from a computer program which analyses the data according to the same algorithm. Data in the range of 20% to 80% of control were used in these calculations.

[2] = humans, after oral administration (background statement); cited from earlier work
[3] = growth inhibition of uninfected mammalian cells (D98); type: cell-based; settings: three days exposure, D-98 cells (human), read-out: Cell Toxicity (% of control at 100µm) D-98 Cells
Method: as §1, §2

[4] = test system: Herpes Simplex Virus (HSV 1); experiment: plaque reduction assay of HSV 1 in monolayers of Vero cells; type: cell-based; settings: HSV 1, Vero cells, read-out: IC₅₀
Method: Herpes Simplex Virus (HSV 1) was assayed in monolayers of Vero cells in multiwell trays. Activity of compounds was determined in the plaque reduction assay, in which a cell monolayer was infected with a suspension of HSV 1, and then overlaid with nutrient agarose in the form of a gel to ensure that there was no spread of virus throughout the culture. A range of concentrations of compound of known molarity was incorporated in the nutrient agarose overlay. Plaque numbers at each concentration were expressed as percentages of the control and a dose-response curve was drawn. From this curve the 50% inhibitory concentration (IC₅₀) was estimated.

[5] = oral bioavailability: urinary recovery as acyclovir after gavage; settings: Long Evans rats, dose equivalent to 25 mg/kg acyclovir, urine collected 24 and 48 hours post-dose
Method: Long Evans Rats were adminstered the compound to be tested by gavage at a dose equivalent to 25 mg/kg acyclovir. The urine was collected for 24 and 48 hours post-dose, ultrafiltered, and analysed by reverse-phase high-pressure liquid chromatography. The oral bioavailability of the compound was expressed as the percent of the dose excreted in the urine as acyclovir.

| IC50 [4] [nM] | Urinary Recovery (% of dose) as acyclovir [5] | SMILES | activity at 72 h, 100 µM [1] [%] | recovery in the urine [2] [%] | activity at 72 h, 100 µM [3] [%] |
| --- | --- | --- | --- | --- | --- |
| 80 to 100 |  | Nc1nc2c(ncn2COCCO)c(=O)[nH]1 [Acyclovir, 9-(2-Hydroxyethoxymethyl)guanine] | 72 | 20 | 99 |
|  |  | CC(C)[C@H](N)C(=O)OCCOCn1cnc2c(=O)[nH]c(N)nc21 [Example 1B, 2-(2-Amino-1,6-dihydro-6-oxo-9H(purin-9-yl)methoxy) ethyl L-valinate hydrochloride monohydrate] | 85 |  | 91 |
| 3800 | 50 % of dose | CC[C@H](C)[C@H](N)C(=O)OCCOCn1cnc2c(=O)[nH]c(N)nc21 [Example 2, 2-(2-amino-1,6-dihydro-6-oxo-9H(purin-9-yl)methoxy)ethyl L-isoleucinate hydrochloride] | 83 |  | 80 |
|  | 30 % of dose | NCC(=O)OCCOCn1cnc2c(=O)[nH]c(N)nc21 [Glycyl ester of ACV] |  |  |  |
|  | 34 % of dose | C[C@H](N)C(=O)OCCOCn1cnc2c(=O)[nH]c(N)nc21 [L -alanyl ester of ACV] |  |  |  |
